Results from patent publication US9834540B2, “Omeprazole Sodium semihydrate and preparation method thereof” (TIANJIN UNIVERSITY, priority 2015, dated 2017).
Where “and” joins values, the source holds several entries; their conditions need not be identical. Identical values can stand only once. Entries after “also recorded” stand apart in the source; their conditions may differ.

Legend:
male and female rats [1] = conditions: rat, in vivo
male and female rats [2] = assay: Reproductive toxicity test; conditions: oral 138 mg/kg/day
[3] = Deposit at 40° C. and relative humidity 75% for 3 days; type: physicochemical; conditions: relative humidity 75%
Description: 0.45 g of Omeprazole Sodium monohydrate, 20 mL of ethyl acetate and 10 mL of s-butanol were added to a crystallizer, and the mixture was stirred at a temperature of 35° C. and a speed of 200 r/min for 2 hours, followed by filtrating and drying to provide 0.42 g of Omeprazole Sodium semihydrate with a mole yield of 95.6% and a HPLC purity of 99.8%. The product had same X-ray powder diffraction pattern as FIG. 1, same solid Fourier transform infrared spectrum as FIG. 2, and DSC decomposition temperature of 227.5° C.

[4] = DSC analysis, thermal decomposition temperature; type: physicochemical; conditions: 10° C./min, 25˜300° C.
Description: The DSC data is obtained by analysis using a differential scanning calorimetry (DSC1/500, Mettler Toledo Corporation, Switzerland), and the analysis conditions are as follows: adding 10 mg of sample to a 40 μL Aluminum crucible, providing high-purity nitrogen as reaction gas and shield gas with a gas-flow rate of 50 mL/min and 20 mL/min, and raising the temperature at a rate of 10° C./min and a range of 25˜300° C.

Flowability (carr index) = type: physicochemical
[5] = Toxic responses, overall comparison; conditions: in words
[6] = Hygroscopicity at 40° C. by dynamic vapor sorption; type: physicochemical
rats [7] = assay: Carcinogenic test in rats within 24 months; type: in vivo; conditions: 24 months persistently treated
[8] = Thermal stability test at 60° C. (airtight container, 10 days, weighed regularly); type: physicochemical; conditions: for Change of crystal form / X-ray powder diffraction pattern after deposit at 60° C.: 10 days
rats [9] = conditions: rat, in vivo, 140 mg/kg/day
dogs = conditions: dog, in vivo
stomach ECL cells = conditions: rat, in vivo
[10] = Toxic responses test, lethal dose in mice; conditions: mouse, in vivo
[11] = Toxic responses test, intravenous lethal dose in rats; conditions: rat, in vivo, read-out: intravenous LD50 (median lethal dose)
[12] = prior-art description; cited from earlier work
[13] = listed as Example 1, sodium salt
[14] = listed as Example 2, sodium salt
[15] = listed as Example 3, sodium salt

## COc1ccc2[n-]c([S+]([O-])Cc3ncc(C)c(OC)c3C)nc2c1.[Na+] (stereo not drawn) [Omeprazole Sodium semihydrate]
Male and female rats [1]
  reproductive toxicity test result: negative
Drug mutation test
  drug mutation test result: negative
Male and female rats [2]
  influence on reproductive performance: no influence on reproductive performance
[3]
  Weight changing rate: 0.68%
[4]; [13]
  thermal decomposition temperature (DSC decomposing exothermic peak): 227.5 °C
[4]; [14]
  thermal decomposition temperature (DSC decomposing exothermic peak): 229.2 °C
[4]; [15]
  thermal decomposition temperature (DSC decomposing exothermic peak): 229.5 °C
[4]; sodium salt
  thermal decomposition temperature (DSC decomposing exothermic peak): 228.5±1 °C and 228.5 °C
Flowability (carr index); [13]
  carr index: 14.3%
Flowability (carr index); [14]
  carr index: 13.9%
Flowability (carr index); [15]
  carr index: 14.7%
Flowability (carr index); sodium salt
  carr index: less than 15%
[5]
  toxicity compared with existing Omeprazole Sodium or monohydrate: improved toxicity
[6]; in words
  hygroscopicity compared with Omeprazole Sodium monohydrate: lower hygroscopicity
[6]; relative humidity 0%
  Weight changing rate: 0%
[6]; relative humidity 5%
  Weight changing rate: 0.001%
[6]; relative humidity 10%
  Weight changing rate: 0.004%
[6]; relative humidity 15%
  Weight changing rate: 0.01%
[6]; relative humidity 20%
  Weight changing rate: 0.02%
[6]; relative humidity 25%
  Weight changing rate: 0.02%
[6]; relative humidity 30%
  Weight changing rate: 0.03%
[6]; relative humidity 35%
  Weight changing rate: 0.03%
[6]; relative humidity 40%
  Weight changing rate: 0.03%
[6]; relative humidity 45%
  Weight changing rate: 0.14%
[6]; relative humidity 50%
  Weight changing rate: 0.17%
[6]; relative humidity 55%
  Weight changing rate: 0.28%
[6]; relative humidity 60%
  Weight changing rate: 0.37%
[6]; relative humidity 65%
  Weight changing rate: 0.45%
[6]; relative humidity 70%
  Weight changing rate: 0.53%
[6]; relative humidity 75%
  Weight changing rate: 0.69%
Rats [7]
  carcinogenic test: gastric mucosa finding: enterochromaffin-like cell hyperplasia in gastric mucosa
Rats [7]; sodium salt
  carcinogenic test: carcinogenesis / cancer metastasis: cancer metastasis is not found; also recorded: carcinogenesis occurred without cancer metastasis
[8]; 0 day
  Weight changing rate: 0%
  Weight of sample: 9.5852 g
[8]; 5 day
  Weight changing rate: 1.1%
  Weight of sample: 9.4826 g
[8]; 10 day
  Weight of sample: 9.3790 g
[8]; 10 day, listed as Example 1, sodium salt
  Weight changing rate: 2.4%
[8]; 10 day, listed as Example 2, sodium salt
  Weight changing rate: 2.5%
[8]; 10 day, listed as Example 3, sodium salt
  Weight changing rate: 2.4%
[8]; [13]
  Change of crystal form / X-ray powder diffraction pattern after deposit at 60° C.: without making any significant changes in the X-ray powder diffraction pattern
[8]; [14]
  Change of crystal form / X-ray powder diffraction pattern after deposit at 60° C.: without making any significant changes in the X-ray powder diffraction pattern
[8]; [15]
  Change of crystal form / X-ray powder diffraction pattern after deposit at 60° C.: without making any significant changes in the X-ray powder diffraction pattern
[8]; sodium salt
  Change of crystal form / X-ray powder diffraction pattern after deposit at 60° C.: does not make any significant change

## COc1ccc2[nH]c([S+]([O-])Cc3ncc(C)c(OC)c3C)nc2c1 (stereo not drawn) [Omeprazole]
Rats [9]
  long-term toxicity findings: liver and kidney increased in weight without histologic changes
dogs
  Intravenous LDLo (lowest published lethal dose): 500 mg/kg
Stomach ECL cells
  stomach ECL cell findings in long-term treatment: cell increase and benign tumour were observed in stomach ECL cells
[10]; mice, intravenous, read-out: Intravenous LD50
  LD50: 82.8 mg/kg
[10]; oral, species not restated, follows mice, read-out: oral LD50
  LD50: > 2000 mg/kg
[11]
  LD50: 302 mg/kg

## COc1ccc2[nH]c([S+]([O-])Cc3ncc(C)c(OC)c3C)nc2c1 (stereo not drawn) [Omeprazole Sodium hydrate]
[12]
  stability (in words): poor stability
